Experimental data: patent US7816074B2, “α4 β2 δGABA-A receptors as a strategy for PMS and alcoholism” (priority 2003, dated 2010)

Legend:
female Long Evans rats [1] = assay: Acoustic startle response (ASR); type: in vivo, rat; conditions: for decrease of peak ASR: diestrous and sham controls
Protocol: Animals were tested in a stabilimeter device (SR-Lab Startle Response System, San Diego Instruments, Inc., San Diego, Calif.) that permits vertical movement of a Plexiglas platform contained within a lit, well-ventilated sound-attenuating chamber (26). The amplitude of movement is detected by a piezoelectric device with a voltage output proportional to platform displacement. The analog output of the accelerometer is then amplified and digitized before computer analysis. Five minutes after i.p. administration of 10% ethanol (0.05-1.6 g/kg) or saline vehicle (1.5 ml volume) or 25 minutes after 4,5,6,7-tetrahydroisoxazolo[5,4-c]pyridin-3-ol injection (3 mg/kg, i.p.), animals were placed in the chamber for a 5 minutes acclimation period. […] Four acoustic stimuli (116 dB, 40 ms duration) were then presented at random intervals once every 10-15 seconds via a white-noise generator through speakers positioned on either side of the cage. […] For each acoustic stimulus, the amplitude and integrated response (amplitude and duration) were determined and normalized to the weight of the animal. Values for the integrated response after administration of each dose of ethanol or 4,5,6,7-tetrahydroisoxazolo[5,4-c]pyridin-3-ol were averaged and expressed as a fraction of the saline control average for the indicated treatment (progesterone withdrawal versus control) group in order to minimize variability between groups. […] It is also routinely used to assess behavioral excitability after withdrawal from BDZs and ethanol (73).
Animals were tested in a stabilimeter device (SR-Lab Startle Response System, San Diego Instruments, Inc.) that permitted vertical movement of a Plexiglas cage contained within a lit, well-ventilated, sound-attenuating chamber. The amplitude of movement was detected by a piezoelectric device with a voltage output proportional to cage displacement. The analog output of the accelerometer was amplified and digitized before computer analysis (15). Five minutes following intraperitoneal administration of alcohol (0.2 or 0.4 g/kg) or saline vehicle (1.5 ml volume), animals were placed in the chamber for 5 a minute acclimation period. Five acoustic stimuli (116 dB, 40 msec duration) were then presented once every 10-15 seconds via a white-noise generator through speakers positioned on either side of the cage. For each acoustic stimulus, the integrated response (amplitude and duration) was averaged across a 100 msec post-stimulus time period and the response latency determined. Both values were normalized to the weight of the animal. Values for the integrated response for the first noise stimulus following administration of each dose of alcohol were averaged and expressed as a fraction of the saline control average for the indicated treatment (P Wd versus control) group. […] It is routinely used to assess behavioral excitability following withdrawal from benzodiazepiness (48) and alcohol (73), and is known to be modified by GABA modulators, such as diazepam (11), and by local infusion of excitatory compounds into dorsal hippocampus (85).

[2] = target: α1β1 receptors / oocytes injected with α1+β1+δ (Rattus norvegicus, UniProt P15431+P62813); conditions: 1 mM alcohol
Source text: (§1) Plasmids with inserts encoding GABAA receptor subunit sequence for rat α1 (62), rat β2 (83), rat α2 (62), rat α5 (62), mouse α4 (37), mouse β3 (82), rat β1 (83), rat γ2S (63), human δ (12), and human ε (11) were produced by subcloning each separately into an appropriate cloning vehicle such as PCDM8, pCDNA3.1 or pGHEMHE vectors (Invitrogen, Carlsbad Calif.) using a T7 promoter and standard subcloning techniques (59). Plasmids were linearized with an appropriate restriction enzyme at a site 3′ to the insert and cRNAs were synthesized using T3 or T7 polymerase (mMessage mMachine, Ambion, Tex.). The size of the cRNA was verified and RNA was quantified by ethidium bromide staining after electrophoresis on 1% agarose gels.
(§2) The preparation, injection, and maintenance of oocytes were carried out as described previously (78). […]
(§3) Voltage-clamp recording was carried out 1 to 3 days after injection of cRNAs. […] Oocytes were voltage-clamped at −70 mV and macroscopic currents were recorded with a two-electrode voltage-clamp using a Warner Instruments OC-725 amplifier as described previously (79). Currents were recorded on a chart recorder or by using Axograph on a Macintosh computer. […]

[3] = test system: GABAA receptors of acutely isolated CA1 hippocampal pyramidal cells; conditions: ethanol 1-3 mM, but not higher (>10 mM); after progesterone withdrawal (ref. 67); cited from earlier work
[4] = test system: α1β2δ receptors (oocytes injected with α1+β2+δ); type: cell-based, rat α1, rat β2, human δ, expressed in Xenopus laevis oocytes; conditions: oocytes injected with α1+β2+δ
Source text: as §1
The preparation, injection, and maintenance of oocytes were carried out as described previously (78). Oocytes were injected with receptor subunit cRNAs (2 to 20 ng) in the following ratios: α1:β1:γ2S, α1:β2:γ2S and α1:β1:ε1, 1:1:1; α2:β1:γ2S, α5:β1:γ2S, α4:β1:γ2S, and α4:β2:γ2S, 10:1:1; α4:β1:δ, α4:β2:δ, α4:β3δ, 10:1:10; α1:β2:δ, 1:1:10 or 1:0.5:3; α1:β1:δ, 1:1:10 or 1:0.5:3; α2:β1:δ and α2:β2:δ, 1:0.5:3; α1:β1, α1:β2, α2:β1, α2:β2, β2:γ2S and α4δ, 1:1, α4:β1, α4:β2, α4:β3, 10:1, β2δ, 1:10.
Voltage-clamp recording was carried out 1 to 3 days after injection of cRNAs. Electrodes were filled with 3 M KCl and had resistances of 0.4-4 MΩ. Oocytes were positioned in a small Perspex chamber and continuously superfused with a saline solution (100 mM NaCl, 2 mM KCl, 1.8 mM CaCl2, 10 mM HEPES, pH 7.5). Agonists and modulators were both applied in the same saline solution. Oocytes were voltage-clamped at −70 mV and macroscopic currents were recorded with a two-electrode voltage-clamp using a Warner Instruments OC-725 amplifier as described previously (79). Currents were recorded on a chart recorder or by using Axograph on a Macintosh computer.
Other subunits (α1, α2, β1, β2) were tested for co-expression with the δ subunit. […]

α1β2 receptors = target: T1, α1β2 receptors (Rattus norvegicus, UniProt P62813+P63138); assay: Two-electrode voltage-clamp of recombinant GABAA receptors in oocytes; type: cell-based, expressed in Xenopus laevis oocytes; conditions: oocytes injected with α1+β2
T1 construct: expressed in transfected cells; host or cells: oocytes injected with cRNA (Xenopus laevis is named only)
Source text: as §1, §2, §3

female Long Evans rats [5] = assay: Elevated plus maze; conditions: ethanol 0.5 g/kg
Protocol: Adult, female Long Evans rats (200-250 grams at the time of testing) were used in the following example. Animals were housed in pairs under controlled conditions (14:10 light:dark cycle, 24° C.) with free access to food and water. Progesterone (P, Sigma, crystalline)-filled capsules of silicone tubing (Nalgene Co. 1/16″×⅛″ o.d., 10 mm/100 g body weight) were implanted subcutaneously in the lower back after induction of halothane anesthesia (3-6% in O2, 1 liter/minutes) in the experimental animals. […] Capsules were removed under halothane anesthesia after a 21-day P administration period, and animals tested 24 hours after the last injection (“P withdrawal”). Control animals were tested on the day of diestrus, also referred to as diestrus controls, a low hormone state, as determined by vaginal lavage. […] All animals were tested between 0730 and 1100 hour. Euthanasia was either by decapitation in the electrophysiology experiments or CO2 inhalation for the behavioral experiments following the indicated protocols.
This device consists of four 10×50 cm arms at 90° angles, with two arms enclosed by 40 cm walls, and two open arms, all elevated 50 cm above the floor. The open arms are also partially bordered by small rails extending to the proximal half of the arm, and the floor of the maze is marked with grid lines every 25 cm. […] Both number of entries and duration of time spent in the open and closed arms were tabulated, as were the total arm entries, a measure of general activity level. To be considered an open arm entry, the animal had to cross the line of the open platform with all four paws. An increase in open arm entries or time spent in the open arm versus the total time is considered to be a measure of decreased anxiety, (25).

α1β1 receptors / oocytes injected with α1+β1+δ, sequence (P62813 28-455): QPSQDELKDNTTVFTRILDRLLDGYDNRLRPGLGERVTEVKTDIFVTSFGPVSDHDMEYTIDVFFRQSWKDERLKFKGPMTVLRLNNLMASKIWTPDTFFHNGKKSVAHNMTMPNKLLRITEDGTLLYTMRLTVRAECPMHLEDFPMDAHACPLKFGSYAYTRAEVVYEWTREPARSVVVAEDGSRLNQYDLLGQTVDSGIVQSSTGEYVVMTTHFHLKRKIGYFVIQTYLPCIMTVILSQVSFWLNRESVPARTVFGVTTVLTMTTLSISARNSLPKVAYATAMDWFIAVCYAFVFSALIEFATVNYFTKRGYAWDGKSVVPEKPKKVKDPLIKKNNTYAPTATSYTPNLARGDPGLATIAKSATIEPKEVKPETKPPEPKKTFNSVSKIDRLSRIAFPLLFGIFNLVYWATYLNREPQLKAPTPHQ
α1β1 receptors / oocytes injected with α1+β1+δ, sequence (P15431 26-474): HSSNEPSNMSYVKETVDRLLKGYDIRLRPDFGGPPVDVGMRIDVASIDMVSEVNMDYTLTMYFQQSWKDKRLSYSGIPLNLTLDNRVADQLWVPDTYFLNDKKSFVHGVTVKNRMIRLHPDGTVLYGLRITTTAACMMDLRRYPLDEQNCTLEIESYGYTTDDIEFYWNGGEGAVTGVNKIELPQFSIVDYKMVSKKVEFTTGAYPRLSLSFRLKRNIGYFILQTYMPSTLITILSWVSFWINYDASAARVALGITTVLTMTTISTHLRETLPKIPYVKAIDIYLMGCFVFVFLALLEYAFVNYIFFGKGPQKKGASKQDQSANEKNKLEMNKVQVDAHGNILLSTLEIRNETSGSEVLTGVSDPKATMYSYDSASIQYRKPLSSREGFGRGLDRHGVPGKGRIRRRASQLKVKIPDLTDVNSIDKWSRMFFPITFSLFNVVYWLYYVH
T1 sequence (P62813 28-455): as the sequence (P62813 28-455) above
T1 sequence (P63138 25-474 limits assumed): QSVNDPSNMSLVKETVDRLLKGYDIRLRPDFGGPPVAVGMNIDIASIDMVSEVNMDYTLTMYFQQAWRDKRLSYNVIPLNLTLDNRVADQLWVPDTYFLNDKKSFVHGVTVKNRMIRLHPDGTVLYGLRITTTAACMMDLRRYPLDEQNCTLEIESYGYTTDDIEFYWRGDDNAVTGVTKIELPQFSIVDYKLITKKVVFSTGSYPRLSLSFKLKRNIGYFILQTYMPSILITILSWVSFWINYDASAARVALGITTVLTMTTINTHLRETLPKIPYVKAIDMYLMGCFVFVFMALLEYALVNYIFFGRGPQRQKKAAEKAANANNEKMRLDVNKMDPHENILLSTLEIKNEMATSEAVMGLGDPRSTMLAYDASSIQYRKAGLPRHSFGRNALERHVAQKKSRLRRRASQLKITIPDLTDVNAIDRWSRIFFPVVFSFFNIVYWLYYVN

For `CCO` [ethanol], the “effect on acoustic startle response” value (female Long Evans rats [1]; alcohol 0.2-0.4 g/kg in vivo, after progesterone withdrawal (Example III)) was “decreased the acoustic startle response”, the “effect on ASR” value (female Long Evans rats [1]; ethanol 0.05 g/kg i.p., P withdrawal and diestrous control animals) was “equally ineffective” and the “attenuation of average peak and integrated startle responses” value (female Long Evans rats [1]; ethanol 0.2-0.4 g/kg i.p., after P withdrawal) was “about 70%”. The “attenuation of startle responses” value (female Long Evans rats [1]; ethanol 0.2-0.4 g/kg i.p., diestrous and sham control animals) was “not observed”, the “decrease of peak ASR” value (female Long Evans rats [1]; ethanol 0.2 g/kg) was “ineffective” and the “effect on ASR” value (female Long Evans rats [1]; ethanol 0.8-1.2 g/kg i.p., P withdrawn animals) was “ineffective”. For the same molecule, the “effect on ASR” value (female Long Evans rats [1]; ethanol 0.8-1.2 g/kg i.p., both control groups) was “significantly decreased”, the “decrease of peak ASR” value (female Long Evans rats [1]; ethanol 0.8 g/kg) was “effective” and the “effect on ASR” value (female Long Evans rats [1]; ethanol 1.6 g/kg i.p., P withdrawal and diestrous control animals) was “decreased the ASR”. For the same molecule, the “effect on GABA responses” value [2] was “not altered”, the “effect on GABA-gated current of isolated hippocampal neurons” value [3] was “potentiated” and the “responses to GABA in presence of alcohol, % of control” value [4] was 88-95 % of control. For the same molecule, the “responses to GABA in presence of alcohol, % of control” value (α1β2 receptors) was 88-95 % of control, the “% open arm entries, P withdrawn greater than control animals after ethanol” value (female Long Evans rats [5]) was 50% and the “time in the open arm, P withdrawn relative to control animals after ethanol” value (female Long Evans rats [5]) was 3 fold. The “increase of % of open arm entries compared to vehicle” value (female Long Evans rats [5]; P withdrawn animals) was 7 fold, the “increase of time in the open arm compared to vehicle” value (female Long Evans rats [5]; P withdrawn animals) was “more than 20 fold” and the “effect on open arm time and % open arm entries” value (female Long Evans rats [5]; control animals) was “no significant effect”. The “locomotor activity (total number of arm entries)” value (female Long Evans rats [5]; either group) was “not significantly altered”.
